Assay results taken from patent US20060247255A1, “Method for preparing a stable gatifloxacin composition” (priority 2005, published 2006).

Test: Polymorphic conversion testing after compression at 1 ton pressure and storage in different environments (DSC/FT-IR)
Format: physicochemical
Procedure: Polymorphic Conversion Testing after Compression at 1 Ton Pressure and Storage in Different Environments.
Compacts of glatifloxacin anhydrous and gatifloxacin hemihydrate were prepared and placed in chambers that were equilibrated as follows:
(i) 25° C. and 21% relative humidity (RH);
(iii) 40° C. and 21% RH; and
Compacts of glatifloxacin anhydrous and gatifloxacin hemihydrate were evaluated by DSC and FT-IR immediately after compression, after 2 days of exposure under the above conditions, and after 6 or 7 days of exposure.
Conversion is identified as a change in DSC thermogram or FT-IR pattern.

[1] = 6 or 7 Days at 25° C. and 21% RH
[2] = 6 or 7 Days at 25° C. and 75% RH
[3] = 6 or 7 Days at 40° C. and 21% RH
[4] = 6 or 7 Days at 40° C. and 75% RH

Row | Structure (SMILES) | Conversion (change in DSC thermogram) (2 Days at 25° C. and 21% RH) | Conversion (change in FT-IR pattern) (2 Days at 25° C. and 21% RH) | Conversion (change in DSC thermogram) (2 Days at 25° C. and 75% RH) | Conversion (change in FT-IR pattern) (2 Days at 25° C. and 75% RH) | Conversion (change in DSC thermogram) (2 Days at 40° C. and 21% RH) | Conversion (change in FT-IR pattern) (2 Days at 40° C. and 21% RH) | Conversion (change in DSC thermogram) (2 Days at 40° C. and 75% RH) | Conversion (change in FT-IR pattern) (2 Days at 40° C. and 75% RH) | Conversion (change in DSC thermogram) [1] | Conversion (change in FT-IR pattern) [1] | Conversion (change in DSC thermogram) [2] | Conversion (change in FT-IR pattern) [2] | Conversion (change in DSC thermogram) [3] | Conversion (change in FT-IR pattern) [3] | Physical stability [3] | Conversion (change in DSC thermogram) [4] | Conversion (change in FT-IR pattern) [4] | Conversion (change in DSC thermogram) (Immediately after compression) | Conversion (change in FT-IR pattern) (Immediately after compression) | also measured
1 | COc1c(N2CCNC(C)C2)c(F)cc2c(=O)c(C(=O)O)cn(C3CC3)c12 (stereo not shown) [Gatifloxacin Hemihydrate, 1-cyclopropyl-6-fluoro-1,4-dihydro-8-methoxy-7-(3-methyl-1-piperazinyl)-4-oxo-3-quinolinecarboxylic acid] | No/No | No/No | No/No | No/No | No/No | No/No | No/No | No/No | No/No | No/No | Yes | No | No/No | No/No | did not effect | Yes/Yes | Yes/Yes | No/No | No/No | Physical stability (approximately 75% RH for a period of at least 6 days): deleteriously effects the physical stability
2 | COc1c(N2CCNC(C)C2)c(F)cc2c(=O)c(C(=O)O)cn(C3CC3)c12 (stereo not shown) [Gatifloxacin Anhydrous, 1-cyclopropyl-6-fluoro-1,4-dihydro-8-methoxy-7-(3-methyl-1-piperazinyl)-4-oxo-3-quinolinecarboxylic acid] | No/No | No/No | No/No | No/No | No/No | No/No | Yes/Yes | Yes/Yes | No/No | No/No | Yes/Yes | Yes/Yes | No/No | No/No | did not effect | Yes/Yes | Yes/Yes | No/No | No/No | Physical stability (approximately 75% RH for a period of 2 days): deleteriously effects the physical stability
